Test [1] deals with SH-SP rats with MCA permanent occlusion. The test can be described thus: Ratio of cerebrocortical infarction after MCA permanent occlusion, intravenous infusion. It is filed as in vivo, rat. On the procedure:
(§1) First, we examined the actions of intravenous infusion of ginsenoside Rb1. For this purpose, for example, male SH-SP rats weighing 250˜300 g at the age of 12-13 weeks were used. The animals were bred in an air-conditioned room with a 12:12 hour light-dark cycle, and water and feeds were supplied ad libitum. The cortical branch of the left middle cerebral artery (MCA) was coagulated and cut. A single intravenous administration of ginsenoside Rb1 dissolved in physiological saline was conducted immediately after MCA permanent occlusion (6 μg or 60 μg), thereafter continuous intravenous administration of ginsenoside Rb1 was performed for 28 days by using an Alza mini osmotic pump (6 μg/day or 60 μg/day).
After the water maze tests at the 4th week, the SH-SP rats were anesthetized with chloral hydrate, and they were perfused and fixed transcardially with 0.1 mole phosphate buffer containing 4% paraformaldehyde. The brains were dissected out and cerebrocortical infarcted areas were photographed. Areas of the left cerebral hemisphere and the left cerebrocortical infarct lesions were measured on the photographs by using an image analysis device. The left cerebrocortical infarcted areas were divided by the left cerebral hemispheric areas to calculate ratios of the cerebrocortical infarction (%).
Male SH-SP rats at the age of 12-13 weeks, weighing 250-300 g, were used. The animals were bred in a room furnished with 12 hours light and dark cycles and water and feeds were supplied ad libitum. Blood pressure of the animals was 203±6.9 mmHg. The following experiments were conducted in accordance with the Guide for Animal Experimentation at Ehime University School of Medicine. […]
After termination of the water maze tests at the 4th week, the SH-SP rats were anesthetized with chloral hydrate, and they were perfused and fixed transcardially with 0.1 mole phosphate buffer containing 4% paraformaldehyde. […] Areas of the left cerebral hemisphere and the left cerebrocortical infarct lesions were measured on the photographs by using an image analysis device. […]

Test [2] concerns gerbils with occlusion of the common carotid arteries. The following applies: i.c.v. infusion starting immediately after 3 or 3.5 minute occlusion; cited from earlier work.
Another test has as its system brain. The following applies: intraperitoneal administration; cited from earlier work.
Test [3] relates to SH-SP rats with MCA permanent occlusion. Briefly: Water maze test (place navigation ability) after MCA permanent occlusion, intravenous infusion. It is filed as in vivo, rat. On the procedure: as §1
After MCA permanent occlusion, according to the conventional method (Zhang B. et al., J. Stroke Cerebrovasc. Dis., 7, 1-9, 1998), water maze tests were performed for 4 days at the 2nd week and the 4th week, respectively, and the place navigation abilities of SH-SP rats were determined.
Male SH-SP rats at the age of 12-13 weeks, weighing 250-300 g, were used. The animals were bred in a room furnished with 12 hours light and dark cycles and water and feeds were supplied ad libitum. Blood pressure of the animals was 203±6.9 mmHg. The following experiments were conducted in accordance with the Guide for Animal Experimentation at Ehime University School of Medicine. The cortical branch of the left middle cerebral artery (MCA) of SH-SP rats, were coagulated and cut, while their rectal temperature was maintained at 37±0.2° C. under inhalation anesthesia.
Immediately after MCA permanent occlusion, 60 μl of physiological saline containing ginsenoside Rb1 at a concentration of 1 μg/μl or 0.1 μg/μl was injected once into the left femoral vein. […]
After the MCA permanent occlusion according to the conventional method (Zhang B. et al., J. Stroke Cerebrovase. Dis., 7, 1-9, 1998), water maze tests were performed for 4 days at the 2nd week and the 4th week, respectively, and place navigation abilities of SH-SP rats were determined. […]

The subject of another test is nerve cells. The settings on record: approximately 500 μM (550 μg/ml); cited from earlier work.
The test system of test [4] is cerebrocortical nerve cells (neurons) from rats at embryonic age 17.
Experimental: After maintaining cerebrocortical nerve cells (neurons) from rats at embryonic age 17 in a serum-free culture medium for 4 or 5 days, the medium was replaced with a fresh medium containing or not containing ginsenoside Rb1 and the neurons were incubated for 24 hours. Then, SNP at the concentration of 100 μM was added to the medium for 10 minutes, and the nerve cells (neurons) were maintained in a medium containing ginsenoside Rb1 for 16 hours. Survival rate of the nerve cells was measured by using a redox indicator, alamar blue.
In the present experiments, ginsenoside Rb1 was added before and after SNP loading or only after SNP loading, and its effects were measured.
After maintaining cerebrocortical nerve cells (neurons) from rats at embryonic age 17 in a serum-free culture medium for 4 or 5 days, the medium was replaced with a fresh medium containing ginsenoside Rb1 at the concentrations of 1 fg/ml, 100 fg/ml and 100 pg/ml or no ginsenoside Rb1 (0 fg/ml), and the neurons were incubated for 24 hours. Thereafter a nitric oxide (NO) donor, sodium nitroprusside (SNP) at a concentration of 100 μM, was added to the medium for 10 minutes. Then the nerve cells (neurons) were maintained in a medium containing ginsenoside Rb1 for 16 hours. Survival rate of the nerve cells was measured by using a redox indicator, alamar blue.
Data are represented as a mean±SE. […]
The test system of test [5] is cerebrocortical neurons from rats at embryonic age 17. Briefly: Peroxidation of neuronal membrane lipids by ferrous sulfate and ascorbic acid (TBA). It is filed as cell-based, rat. The following applies: 48 hours pretreatment. How it is done: Then the medium was changed to a fresh medium containing ferrous sulfate and ascorbic acid but not containing ginsenoside Rb1 and the neuronal culture was maintained for 2 hours to generate hydroxyl radicals for giving an oxidative injury to neuronal membrane. The generated neuronal membrane lipid peroxide was determined by photometrically measuring a fixed amount of thiobarbituric acid (TBA) after solubilizing the cells with sodium dodecyl sulfate.
Then the medium was changed to a fresh medium containing ferrous sulfate and ascorbic acid but no ginsenoside Rb1, and the neuronal culture was maintained for 2 hours to generate hydroxyl radicals for giving oxidative injury to neuronal membrane. The generated neuronal membrane lipid peroxide was photometrically determined by measuring the fixed amount of thiobarbituric acid (TBA) after solubilizing the cells with sodium dodecyl sulfate.

As to `CC(C)=CCC[C@](C)(O[C@@H]1O[C@H](CO[C@@H]2O[C@H](CO)[C@@H](O)[C@H](O)[C@H]2O)[C@@H](O)[C@H](O)[C@H]1O)[C@H]1CC[C@]2(C)[C@@H]1[C@H](O)C[C@@H]1[C@@]3(C)CC[C@H](O[C@@H]4O[C@H](CO)[C@@H](O)[C@H](O)[C@H]4O[C@@H]4O[C@H](CO)[C@@H](O)[C@H](O)[C@H]4O)C(C)(C)[C@@H]3CC[C@]12C` [ginsenoside Rb1], in test [1] (i.v. 6 or 60 μg/day for 28 days, compared with physiological saline group), the “ratio of cerebrocortical infarction” value is “significantly reduced”. Further, the “actual volume of infarction reduced to (fraction of control)” value in test [1] (i.v. administration, worked out from area ratio) is “about ¼”. The “mean ratio of cerebrocortical infarction compared with physiological saline group” value in test [1] (i.v. ginsenoside Rb1 groups, reduced to) is reported as ≤ 50%. Moreover, the “delayed neuronal death and learning disability” value in test [2] is given as “suppresses”. Moreover, the “action on the brain” value with brain was “tranquilizing action”. Moreover, the “learning disability in water maze tests, low dose” value in test [3] (i.v. 6 μg/day, 3rd and 4th day at the 2nd and 4th week after MCA occlusion) is on record as “significantly ameliorated”. Moreover, the “learning disability in water maze tests, high dose” value in test [3] (i.v. 60 μg/day, 4th day at the 2nd week, 3rd and 4th days at the 4th week after MCA occlusion) is recorded as “significantly ameliorated”. Moreover, the “place navigation disability after MCA permanent occlusion (water maze)” value in test [3] (intravenous infusion 6 or 60 μg/day for 28 days, compared with cerebral infarction group given physiological saline) was “significantly improved”. For the same compound, the “apoptosis-like nerve cell death” value with nerve cells is reported as “has a possibility to prevent”. Also, in test [4] (1-100 fg/ml, added before and after SNP (100 μM, 10 minutes) or only after SNP), the “apoptosis of nerve cells after SNP treatment” value was “significantly suppressed”. Besides, the “concentrations in extracellular fluid that suppress apoptosis of nerve cells” value in test [4] (SNP-treated cultured neurons) was 1 to 100 fg/mL. In test [5] (0.1-10 fg/ml), the “preventive effect on lipid peroxidation” value was “no preventive effects”. Moreover, the “preventive effect on peroxidation of nerve cell membrane lipid” value in test [5] (100 fg/ml) is on record as “slightly confirmed”.

The record behind these values is patent US6579853B2, “Brain cell or nerve cell-protective agents comprising ginsenoside Rb1” (Japan Science and Technology Corporation, priority 1998, dated 2003).
